Results taken from patent US11298388B2, “Psychoactive alkaloid extraction and composition with controlled dephosphorylation” (PSILO SCIENTIFIC LTD, priority 2020, dated 2022).
Like-named read-outs stand apart in the source and are kept apart here.

Experiments:
[1] = Isoelectric point / maximum stability pH; format: physicochemical
Description: The pH of the partially concentrated extract of Example 1, which was an aqueous extract, was adjusted to pH 4.0 (+/−0.5) by adding 2 M phosphoric acid and centrifuged for 15 minutes at 3000 g to remove any solid precipitate. The pH of 4 corresponds to the isoelectric point of psilocybin, and psilocin's polarity is such that it is partitioned onto the resin, thus allowing effective binding of the psychoactive alkaloids psilocybin and psilocin to the macroporous resin. Norbaeocystin and baeocystin are phosphorylated and behave in the same way as psilocybin. The supernatant obtained was loaded onto a column of Amberlite® XAD4, a non-ionic macroporous resin (50.34 g of dry resin) at a flow rate of 2 bed volumes per hour, to allow components in the supernatant to be adsorbed onto the macroporous resin. After all 2.5 L of the extract was loaded onto the column of macroporous resin, the column was washed in a single pass with 5 bed volumes of reverse osmosis water at room temperature. This was followed by elution with 5 bed volumes of 5% ethanol (by weight), again at room temperature. Finally, the column was washed in a single pass with 5 bed volumes of 100% ethanol. The elution was performed at room temperature. Each of these three fractions was collected separately. The particular order for the washing steps and the elution was selected to be in the order of the polarity of the solvents. […]

[2] = Oxidation (decay) of psilocin when exposed to air, own data
[3] = cited from earlier work

Row | Compound | maximum stability pH [1] | decay (oxidation of psilocin) ([2]; at 20 hours when shielded from light) | decay (oxidation of psilocin) ([2]; moist and/or high light environment, after 5 hours) | decay (oxidation of psilocin) ([2]; moist and/or high light environment, within 30 minutes) | solubility ([3]; in acetone) | solubility ([3]; in ethanol) | solubility ([3]; in isopropanol) | solubility ([3]; in methanol) | solubility ([3]; in water)
1 | CN(C)CCc1c[nH]c2cccc(O)c12 [Psilocin, psilocin] | 4 | 40-60% | 25% | about 10% | not soluble | not soluble | not soluble | soluble | soluble
2 | CN(C)CCc1c[nH]c2cccc(OP(=O)(O)O)c12 [Psilocybin, psilocybin] |  |  |  |  | not soluble | not soluble | not soluble | soluble | soluble
